The values below come from patent US9994587B2, “HIV protease inhibitors” (priority 2014, dated 2018).

In one experiment the target is T1, wildtype HIV-1 protease (Human immunodeficiency virus type 1 group M subtype B, UniProt P04585).
T1 construct: preincubated with the HIV-1 protease (wild type) enzyme in assay buffer; made in house; host or cells: Escherichia coli
Kind of experiment: Assay for inhibition of microbial expressed HIV protease (Pepcleav). It counts as biochemical. The following applies: wild type HIV-1 protease 20 pM, peptide substrate 400 micromolar, pH 5.5; mean of at least two independent experiments. The procedure, abridged: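 E. coli-expressed enzyme preincubated with inhibitor 30 min at room temperature in 50 mM sodium acetate pH 5.5, 100 mM NaCl, 0.1% BSA, then 400 micromolar peptide substrate added with 20 picomolar protease (final), 1 h at 30° C. Product quantified by LC-MS/MS peak area after formic acid/indinavir quench.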

The next experiment relates to HIV-1 (NL4-3 strain). Kind of experiment: Viral Kinetics GFP Reporter (ViKinG) assay. In kind it is cell-based. The following applies: Human immunodeficiency virus 1, NL43; 50% NHS; MT4-GFP cells infected with HIV-1 NL4-3; mean of at least two independent experiments. An excerpt:
Viral Kinetics GFP Reporter (ViKinG) Assay
The ViKinG assay is an in vitro kinetic assay that employs the MT4-gag-GFP reporter cell line (Wang et al., “Assessment of the susceptibility of mutant HIV-1 to antiviral agents.” J Virological Methods 165:230-37 (2010)) to quantify the number of new cells infected in each round of replication. The purpose of the ViKinG assay is to identify agents that inhibit HIV progression. Briefly, HIV infection results in tat transactivation of the stably expressed HIV LTR promoter to drive gagGFP expression. Thus, an increase in the number of GFP-MT4 cells results following HIV infection.
MT4-GFP cells (250,000 cells/ml) were bulk-infected with HIV-1 (NL4-3 strain) at low multiplicity of infection (MOI) in RPMI+10% FBS for 24 hours. Cells were then washed once in RPMI+10% FBS and resuspended RPMI+10% or 50% normal human serum (NHS). Test compounds were serial-diluted in DMSO on an ECHO® liquid handling platform (Labcyte Corp., Sunnyvale, Calif.), along with a triple drug control (integrase, protease and NNRTI compounds). The infected MT4-GFP cells were added to a 384-well poly-D-lysine coated black plate with clear bottom in which the diluted test compounds were placed. The cells were seeded at 8,000 cells per well and the final DMSO concentration was 0.4%. The infected cells (Green GFP cells) were quantified at both 24 and 48 hours post incubation using Acumen® eX3 (TTP Labtech Ltd., Hertfordshire, United Kingdom). Viral reproductive ratio (R0) was determined using the number of infected cells at 48 hours divided by the number of infected cells at 24 hours. Percent viral growth inhibition was calculated by [1−(R−Rtripledrug)/(RDMSO−Rtripledrug)]*100. Compound potency IP or IC50 was determined by a 4-parameter dose response curve analysis.

As for `N[C@H](C(=O)Nc1cccc(F)c1CC[C@@H]1CNC[C@@H](COC(=O)NCC(F)(F)F)O1)C(c1ccc(F)cc1)c1ccc(F)cc1` [Example 99, 4-fluoro-β-(4-fluorophenyl)-N-(3-fluoro-2-{2-[(2R,6S)-6-({[(2,2,2-trifluoroethyl)carbamoyl]oxy}methyl)morpholin-2-yl]ethyl}phenyl)-L-phenylalaninamide], the results for the IC50 on wildtype HIV-1 protease and in the experiment on HIV-1 (NL4-3 strain) were 15 nM and 59 nM, respectively.

`N[C@H](C(=O)Nc1cncc(F)c1CC[C@@H]1CNC[C@@H](CSc2nnc(-c3ccncc3)o2)O1)C(c1ccc(F)cc1)c1ccc(F)cc1` [Example 103, (S)-2-amino-N-(5-fluoro-4-(2-((2R,6S)-6-(((5-(pyridin-4-yl)-1,3,4-oxadiazol-2-yl)thio)methyl)morpholin-2-yl)ethyl)pyridin-3-yl)-3,3-bis(4-fluorophenyl)propanamide]: the IC50 on wildtype HIV-1 protease was 0.49 nM; in the experiment with HIV-1 (NL4-3 strain) it was 37 nM.

One may read the IC50 as the concentration needed to halve the response being measured.
